Experimental data taken from patent publication US11589586B2, “Pesticidal and parasiticidal pyrazole-isoxazoline compounds” (BOEHRINGER INGELHEIM ANIMAL HEALTH USA INC., priority 2017, dated 2023).

Tests used:
[1] = tested on: adult Ctenocephalides felis; assay: Efficacy against fleas when ingested (treated bovine blood membrane feeding); type: in vivo; settings: adult Ctenocephalides felis fed on treated bovine blood, 72 hour assessment, compared with untreated controls
Text: Method B: Efficacy of Compounds Against Fleas when Ingested
A cylindrical test container was filled with 10 adult Ctenocephalides felis. A cylindrical well was closed on one end with a self-sealing flexible film and placed on top of the test container in such a position that the fleas could pierce the film and feed on the contents of the cylinder. The test compound solution was then pipetted into bovine blood and added to the well. The container part with the Ctenocephalides felis was held at 20-22° C. and 40-60% relative humidity while the well part containing the treated blood was held at 37° C. and 40-60% relative humidity. Assessment was performed at 72 hours after application in comparison with untreated controls.

A. aegypti L1 larvae = assay: Efficacy against A. aegypti mosquitos (L1 larvae motility, dose response); type: in vivo; settings: Aedes aegypti; ten A. aegypti L1 larvae, diluted LB media, 25° C., 48h; read-out: EC50 (motility of larvae compared to DMSO control wells)
Experimental: Method A: Efficacy of Compounds Against A. aegypti Mosquitos Compounds were formulated in 100% DMSO are added to microtiter plates containing 180 μl of diluted LB media (Luria-Bertani media is a combination of tryptone, salt and yeast extract). Ten A. aegypti L1 larvae are added and the plates are incubated at 25° C. for 48h. The efficacy of a compound is determined based on the motility of the larvae as compared to average motility of control wells containing DMSO only. A dose response assay was conducted to determine an EC50 value.

| Structure (SMILES) | LC50 [1] | EC50 (A. aegypti L1 larvae) |
| --- | --- | --- |
| Cc1cc(C2=NOC(c3cc(C(F)(F)F)nn3C)(C(F)(F)F)C2)ccc1C(=O)NCC(=O)NCC(F)(F)F (centres unmarked) [Compound 2-1, 2-[(2-Methyl-4-[5-[1-methyl-3-(trifluoromethyl)-1H-pyrazol-5-yl]-5-(trifluoromethyl)-4,5-dihydro-1,2-oxazol-3-yl]phenyl)formamido]-N-(2,2,2-trifluoroethyl)acetamide] | < 20 µM | < 10 µM |
| Cn1nc(C(F)(F)F)cc1C1(C(F)(F)F)CC(c2ccc(C(=O)NCC(=O)NCC(F)(F)F)c3ccccc23)=NO1 (centres unmarked) [Compound 2-2, 2-[(4-[5-[1-methyl-3-(trifluoromethyl)-1H-pyrazol-5-yl]-5-(trifluoromethyl)-4,5-dihydro-1,2-oxazol-3-yl]naphthalen-1-yl)formamido]-N-(2,2,2-trifluoroethyl)acetamide] | < 20 µM | < 10 µM |
| Cn1nc(C(F)(F)F)cc1C1(C(F)(F)F)CC(c2ccc3c(c2)COC32CN(C(=O)CS(C)(=O)=O)C2)=NO1 (centres unmarked) [Compound 2-3, 1-(5′-(5-(1-methyl-3-(trifluoromethyl)-1H-pyrazol-5-yl)-5-(trifluoromethyl)-4,5-dihydroisoxazol-3-yl)-3′H-spiro[azetidine-3,1′-isobenzofuran]-1-yl)-2-(methylsulfonyl)ethan-1-one] | < 20 µM | < 10 µM |
| CSCCNC(=O)c1ccc(C2=NOC(c3cc(C(F)(F)F)nn3C)(C(F)(F)F)C2)cc1C (centres unmarked) [Compound 2-4, 2-methyl-4-[5-[1-methyl-3-(trifluoromethyl)-1H-pyrazol-5-yl]-5-(trifluoromethyl)-4,5-dihydro-1,2-oxazol-3-yl]-N-[2-(methylsulfanyl)ethyl]benzamide] | < 20 µM | < 10 µM |
| Cc1cc(C2=NOC(c3cc(C(F)(F)F)nn3C)(C(F)(F)F)C2)ccc1C(=O)NCCS(C)(=O)=O (centres unmarked) [Compound 2-5, N-(2-methanesulfonylethyl)-2-methyl-4-[5-[1-methyl-3-(trifluoromethyl)-1H-pyrazol-5-yl]-5-(trifluoromethyl)-4,5-dihydro-1,2-oxazol-3-yl]benzamide] | < 20 µM | < 10 µM |
| Cc1cc(C2=NOC(c3cc(C(F)(F)F)nn3C)(C(F)(F)F)C2)ccc1C(=O)NCC(F)(F)F (centres unmarked) [Compound 2-6, 2-methyl-4-[5-[1-methyl-3-(trifluoromethyl)-1H-pyrazol-5-yl]-5-(trifluoromethyl)-4,5-dihydro-1,2-oxazol-3-yl]-N-(2,2,2-trifluoroethyl)benzamide] | < 50 µM | < 10 µM |
| Cc1cc(C2=NOC(c3cc(C(F)(F)F)nn3C)(C(F)(F)F)C2)ccc1C(=O)NC1CC1 (centres unmarked) [Compound 2-7, N-cyclopropyl-2-methyl-4-[5-[1-methyl-3-(trifluoromethyl)-1H-pyrazol-5-yl]-5-(trifluoromethyl)-4,5-dihydro-1,2-oxazol-3-yl]benzamide] | < 50 µM | < 10 µM |
| C=CCNC(=O)c1ccc(C2=NOC(c3cc(C(F)(F)F)nn3C)(C(F)(F)F)C2)cc1C (centres unmarked) [Compound 2-8] | – | < 20 µM |
| Cn1nc(C(F)(F)F)cc1C1(C(F)(F)F)CC(c2ccc(C(=O)NCC(=O)NCC(F)(F)F)cc2)=NO1 (centres unmarked) [Compound 2-9, 2-[(4-[5-[1-Methyl-3-(trifluoromethyl)-1H-pyrazol-5-yl]-5-(trifluoromethyl)-4,5-dihydro-1,2-oxazol-3-yl]phenyl)formamido]-N-(2,2,2-trifluoroethyl) acetamide] | – | < 20 µM |
| Cn1nc(C(F)(F)F)cc1C1(C(F)(F)F)CC(c2ccc(Cl)c(C(=O)NC3CC3)c2)=NO1 (centres unmarked) [Compound 2-10, 2-Chloro-N-cyclopropyl-5-[5-[1-methyl-3-(trifluoromethyl)-1H-pyrazol-5-yl]-5-(trifluoromethyl)-4,5-dihydro-1,2-oxazol-3-yl]benzamide] | – | < 20 µM |
| Cc1cc(C2=NOC(c3cn(C)nc3C(F)(F)F)(C(F)(F)F)C2)ccc1C(=O)NCC(=O)NCC(F)(F)F (centres unmarked) [Compound 2-11, 2-[(2-methyl-4-[5-[1-methyl-3-(trifluoromethyl)-1H-pyrazol-4-yl]-5-(trifluoromethyl)-4,5-dihydro-1,2-oxazol-3-yl]phenyl)formamido]-N-(2,2,2-trifluoroethyl)acetamide] | – | < 20 µM |
| COCn1nc(C(F)(F)F)cc1C1(C(F)(F)F)CC(c2ccc(C(=O)NCC(=O)NCC(F)(F)F)c(C)c2)=NO1 (centres unmarked) [Compound 2-30, 2-[(4-[5-[1-(methoxymethyl)-3-(trifluoromethyl)-1H-pyrazol-5-yl]-5-(trifluoromethyl)-4,5-dihydro-1,2-oxazol-3-yl]-2-methylphenyl)formamido]-N-(2,2,2-trifluoroethyl)acetamide] | – | < 10 µM |
| COCn1nc(C2(C(F)(F)F)CC(c3ccc(C(=O)NCC(=O)NCC(F)(F)F)c(C)c3)=NO2)cc1C(F)(F)F (centres unmarked) [Compound 2-31, 4-(5-(1-(methoxymethyl)-5-(trifluoromethyl)-1H-pyrazol-3-yl)-5-(trifluoromethyl)-4,5-dihydroisoxazol-3-yl)-2-methyl-N-(2-oxo-2-(2,2,2-trifluoroethylamino)ethyl)benzamide] | – | < 10 µM |
